One data set relates to Streptococcus mutans. Briefly: Agar plate zone of inhibition test. The data set is classed as cell-based, S. mutans DSM20723. Conditions: 24 h at 37° C./5% CO2. From the text:
To determine the antimicrobial action of a temporary dental cement with the active ingredient of formula (Ia), 3.0 wt.-% of the active ingredient of formula (Ia) was incorporated into the commercially available cement Systemp.link (Ivoclar Vivadent AG). Round testpieces with a diameter of 10 mm and a thickness of 2 mm were then shaped into small plates with the corresponding material and then cured. Testpieces made of Systemp.link without active ingredient and also with 1.0 and 3.0 wt.-% triclosan served as reference. After this, the antimicrobial action on the bacterial strain Streptococcus mutans was studied. The agar plate zone of inhibition test was used for this.
Bacterial strain: S. mutans DSM20723 Cultivation medium: BHI broth
100 μl undiluted S. mutans culture solution was plated out onto agar plates. The testpieces were then placed on the agar plates. After 24 h storage at 37° C./5% CO2, the plates were assessed.

A short description of data set [1]: Hardening properties of composite-based temporary cement (Systemp.link). The data set is classed as physicochemical. To be noted: 0.3 or 3.0 wt.-%. How it is done:
0.3 wt.-% or 3.0 wt.-% of the antimicrobial active ingredient of formula (Ia) was incorporated into the base paste of the commercially available composite-based temporary fixing cement Systemp.link (Ivoclar Vivadent AG). The processing time (PT), setting time (ST) and Shore D hardness were then determined.

Data set [2] is described as follows: Through-curing depth of light-curing composite filling material. It is filed as physicochemical. To be noted: 3.0 or 5.0 wt.-%. How it is done: A composite filling material with the following composition was prepared:
3.0 wt.-% or 5.0 wt.-% of the antimicrobial active ingredient of formula (Ia) was incorporated into the composite filling material. After 20 s exposure to light with a dental polymerization light (Bluephase®, Ivoclar Vivadent AG), the through-curing depth was determined. For comparison, the antimicrobial active ingredients triclosan and chlorhexidine diacetate were also incorporated into the composite material in a quantity of 3.0 wt.-% or 5.0 wt.-% and the through-curing depth determined (see Table 5 for results).

A short description of data set [3]: Influence on radical polymerization: chemical hardening of Systemp.link. The data set is classed as physicochemical. To be noted: 3.0 wt.-%. The procedure:
3.0 wt.-% triclosan or 3.0 wt.-% of the antimicrobial active ingredient of formula (Ia) was incorporated into the base paste of the commercially available composite-based temporary fixing cement Systemp.link (Ivoclar Vivadent AG), which hardens radically. The processing time (PT), setting time (ST) and Shore D hardness in the case of chemical hardening were then determined.

Data set [4] in a line: Hardening on exposure to dental polymerization light. The data set is classed as physicochemical. Conditions: 20 s exposure to light (Bluephase); 0.2 or 0.5 wt.-% Ia in Fermit. The procedure: (§1) 0.2 wt.-% or 0.5 wt.-% of the antimicrobial active ingredient of formula (Ia) was incorporated into the commercially available composite-based temporary filling material Fermit (Ivoclar Vivadent AG). […] The Shore D hardness was then determined (see Table 4 for results).

Data set [5] can be described thus: Shore D hardness of temporary filling material (Fermit). It is filed as physicochemical. Conditions: 0.2 or 0.5 wt.-%. How it is done:
as §1

Data set [6] is described as follows: Hardening properties of temporary cement based on polycarboxylate/zinc oxide (Systemp.cem). The data set is classed as physicochemical. To be noted: 0.3 or 3.0 wt.-%. How it is done: 0.3 wt.-% or 3.0 wt.-% of the antimicrobial active ingredient of formula (Ia) was incorporated into the initiator paste of the commercially available temporary fixing cement based on polycarboxylate/zinc oxide Systemp.cem (Ivoclar Vivadent AG). The processing time (PT), setting time (ST) and Shore D hardness were then determined.

[7] abbreviates: 3.0 wt.-% active ingredient in cured Systemp.link small plates.

Entries after “also recorded” stand apart in the source; their conditions may differ.

In the case of `CCCCCCCCNc1cc[n+](CCCCCCCCCC[n+]2ccc(NCCCCCCCC)cc2)cc1` [Ia], the “Formation of zones of inhibition” value in the data set on Streptococcus mutans (setting [7]) was “clear zones of inhibition”. The “Influence on the hardening of Systemp.link” value in data set [1] was “does not have a significant negative influence”. Also, the “Influence on the through-curing depth of the composite material” value (shortened to “Influence on the through-curing depth”) in data set [2] is “does not have a significant negative influence”. Moreover, the “Influence on the chemical hardening of Systemp.link” value in data set [3] was “does not have a significant negative influence”. Moreover, the “Hardening after exposure to light” value in data set [4] is “hardened completely”. The “Influence on the hardening of Fermit” value in data set [5] is “does not have a significant negative influence”. In addition, the “Influence on the hardening of Systemp.cem” value in data set [6] was “does not have a significant negative influence”.
With `CC(=O)O.CC(=O)O.NC(=N\CCCCCC/N=C(N)/N=C(\N)Nc1ccc(Cl)cc1)/N=C(\N)Nc1ccc(Cl)cc1` [chlorhexidine diacetate], the “Influence on the through-curing depth” value in data set [2] is recorded as “dramatically reduced”.
As to `Oc1cc(Cl)ccc1Oc1ccc(Cl)cc1Cl` [triclosan, 2,4,4′-trichloro-2′-hydroxydiphenylether], the “Formation of zones of inhibition” value with Streptococcus mutans (1.0 wt.-% active ingredient in cured Systemp.link small plates) and with Streptococcus mutans (setting [7]) was “does not bring about a formation of zones of inhibition; also recorded: zones of inhibition do not form” each time. Moreover, the “Influence on the through-curing depth” value in data set [2] is reported as “dramatically reduced”. The “Influence on the chemical hardening of Systemp.link” value in data set [3] is given as “completely inhibited”.

(Values after patent publication US20110275675A1, “Antimicrobial Dental Materials” (IVOCLAR VIVADENT AG, priority 2010, published 2011).)
